The values below come from patent US20190234940A1, “METABOLIC RESTRICTION IN CELL-BASED ASSAYS” (priority 2016, published 2019).

One data set addresses T1, CYP1A2 (Homo sapiens, UniProt P05177).
T1 construct: CYP1A2, CYP2C9, and CYP3A4 activity were determined in HBV-infected HepaRG cells; endogenous in cells; host or cells: differentiated HepaRG cells infected with HBV
T1 sequence (P05177 1-516): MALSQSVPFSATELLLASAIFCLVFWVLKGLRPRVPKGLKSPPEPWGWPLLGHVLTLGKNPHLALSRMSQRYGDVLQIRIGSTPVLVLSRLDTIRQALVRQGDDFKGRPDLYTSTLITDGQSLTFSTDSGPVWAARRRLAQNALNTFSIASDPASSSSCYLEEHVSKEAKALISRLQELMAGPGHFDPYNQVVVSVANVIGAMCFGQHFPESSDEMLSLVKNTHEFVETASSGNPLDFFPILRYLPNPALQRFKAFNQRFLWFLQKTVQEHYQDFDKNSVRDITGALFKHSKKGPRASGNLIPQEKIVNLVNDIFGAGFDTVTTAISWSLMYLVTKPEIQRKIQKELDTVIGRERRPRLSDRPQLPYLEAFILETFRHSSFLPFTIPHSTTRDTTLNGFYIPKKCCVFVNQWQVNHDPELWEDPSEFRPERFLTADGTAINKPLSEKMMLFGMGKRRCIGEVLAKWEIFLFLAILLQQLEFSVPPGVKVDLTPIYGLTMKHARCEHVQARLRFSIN
The experiment in a line: P450-Glo CYP1A2 activity in HBV-infected HepaRG cells. The conditions noted are these: day 11 p.i. It is filed as cell-based.

The next data set has as its target T2, CYP3A4 (Homo sapiens, UniProt P08684).
T2 construct: CYP1A2, CYP2C9, and CYP3A4 activity were determined in HBV-infected HepaRG cells; endogenous in cells; host or cells: differentiated HepaRG cells infected with HBV
As to the kind of experiment: P450-Glo CYP3A4 activity in HBV-infected HepaRG cells. It is filed as cell-based. Conditions: day 11 p.i.

For data set [1], the target named is T3, CYP2C9 (Homo sapiens, UniProt P11712). The experiment in a line: P450-Glo CYP2C9 activity in HBV-infected HepaRG cells.
T3 sequence (P11712 whole entry): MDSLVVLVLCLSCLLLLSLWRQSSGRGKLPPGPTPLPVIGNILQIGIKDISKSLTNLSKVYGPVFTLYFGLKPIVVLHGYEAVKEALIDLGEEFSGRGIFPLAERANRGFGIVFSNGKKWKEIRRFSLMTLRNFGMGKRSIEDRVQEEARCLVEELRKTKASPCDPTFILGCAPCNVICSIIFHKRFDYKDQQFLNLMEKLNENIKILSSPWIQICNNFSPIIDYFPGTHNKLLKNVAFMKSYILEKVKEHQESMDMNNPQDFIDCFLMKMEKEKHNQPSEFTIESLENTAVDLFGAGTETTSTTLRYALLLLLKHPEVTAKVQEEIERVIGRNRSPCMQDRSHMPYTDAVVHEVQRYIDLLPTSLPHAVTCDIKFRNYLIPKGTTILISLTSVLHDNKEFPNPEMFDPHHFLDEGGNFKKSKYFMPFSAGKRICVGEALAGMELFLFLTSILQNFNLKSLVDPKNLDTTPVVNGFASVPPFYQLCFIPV
Data set [2] concerns the target T3, CYP2C9.
Where [3] appears, read: ABT 10 or 20 mM 1 h twice, or 0.1 or 0.2 mM twice for 3 days (days 5 and 8 p.i.).
[4] abbreviates: SKF-525A 100 or 200 μM 1 h twice, or 2 or 20 μM twice for 3 days.

Structures can show the parent of a compound that is named as a salt. Where two headings read alike, the source gives them in different places.

T2 sequence (P08684 whole entry): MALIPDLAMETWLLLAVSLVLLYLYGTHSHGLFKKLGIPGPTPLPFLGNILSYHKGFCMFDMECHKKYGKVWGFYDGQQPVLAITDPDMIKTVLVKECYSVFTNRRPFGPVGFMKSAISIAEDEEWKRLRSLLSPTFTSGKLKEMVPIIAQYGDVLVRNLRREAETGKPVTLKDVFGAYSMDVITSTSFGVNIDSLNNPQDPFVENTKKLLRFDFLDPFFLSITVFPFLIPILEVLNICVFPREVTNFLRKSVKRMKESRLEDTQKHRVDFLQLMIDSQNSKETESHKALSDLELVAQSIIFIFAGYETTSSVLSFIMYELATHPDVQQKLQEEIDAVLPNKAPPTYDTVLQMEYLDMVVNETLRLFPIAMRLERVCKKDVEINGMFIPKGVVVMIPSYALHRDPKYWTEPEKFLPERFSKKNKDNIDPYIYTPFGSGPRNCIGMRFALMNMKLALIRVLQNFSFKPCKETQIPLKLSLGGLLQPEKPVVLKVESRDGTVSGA

As for `Nn1nnc2ccccc21` [ABT, 1-aminobenzotriazole], the “inhibition of CYP1A2” value against CYP1A2 (setting [3]) is given as over 90%. Besides, the “inhibition of CYP3A4” value at CYP3A4 (setting [3]) is reported as over 90%. Moreover, on CYP2C9 [1] (ABT 10 or 20 mM 1 h twice, or 0.1 or 0.2 mM twice for 3 days (days 5 and 8 p.i.), day 11 p.i.), the “inhibition of CYP2C9” value is reported as 72%-75%. As to `CCCC(C(=O)OCCN(CC)CC)(c1ccccc1)c1ccccc1` [SKF-525A, proadifen hydrochloride], the “CYP1A2 inhibition relative to other CYPs” value on CYP1A2 (setting [4]) is recorded as “inhibited CYP1A2 less”. The “CYP3A4 inhibition relative to other CYPs” value at CYP3A4 (setting [4]) is listed as “inhibited CYP3A4 better than CYP2C9”. With `Cc1nc2c([nH]1)c(=O)n(C)c(=O)n2Cc1ccco1` [furafylline], at CYP2C9 [1] (furafylline alone, titration), the CYP2C9 inhibition entry was “also inhibit”. Regarding `CC(=O)N1CCN(c2ccc(OCC3COC(Cn4ccnc4)(c4ccc(Cl)cc4Cl)O3)cc2)CC1` (stereo not shown) [ketoconazole], on CYP2C9 [2], the CYP2C9 inhibition entry was “also inhibit”.
